Measured values reported in patent US12679878B2, “CRF2 receptor agonists and their use in therapy” (SANOFI, priority 2020, dated 2026).
One block for each molecule: values may come before it. Starred links: 1 amine or outer side, 2 acyl side, 3 side chain; linkers in the order of their positions; H or OH if unused. Non-standard residues stand in square brackets, D forms with d. Residues, ends and D or L forms follow the SMILES beside them. Groups on a side chain read outwards from the residue. *: point of attachment. C20 diacid = O=C(O)CCCCCCCCCCCCCCCCCCC(=O)*; C18 diacid = O=C(O)CCCCCCCCCCCCCCCCC(=O)*; γGlu = O=C(O)[C@H](CCC(=O)[*:2])N[*:1]; AEEA = NCCOCCOCC(=O)O; Aib = CC(C)(N)C(=O)O

Legend:
[1] = Pharmacokinetic properties in rats, i.v. or s.c. (Example 16); type: in vivo, SD rat; conditions: Rat
Procedure: (§1) The pharmacokinetic properties of exemplary peptides SEQ ID NO: 35 and SEQ ID NO: 24 were assessed in mice and rats.
(§2) The test compound was administered in a suitable buffer system (PBS buffer solution at pH 7.4, or DPBS solution) at concentrations of 0.05, 0.1, 0.5 or 1 mg/ml depending on the dose, species and administration volume. Female C57BI/6 mice and male SD rate were dosed 0.1 mg/kg or 0.3 mg/kg intravenously or subcutaneously. The animals were sacrificed, and blood samples were collected after 0.08, 0.25, 0.5, 1, 2, 4, 8, 24, 32, and 48 hours post-intravenous administration and 0.25, 0.5, 1, 2, 4, 8, 24, 32, and 48 hours post-subcutaneous administration, respectively. Plasma samples were analysed after protein precipitation via liquid chromatography mass spectrometry (LC/MS). Pharmacokinetic parameters and half-life were calculated using Phoenix-WinNonlin 8.1 using a non-compartmental model and linear trapezoidal interpolation calculation.

[2] = Physical stability, Thioflavin T fibrillation assay (Example 14); type: physicochemical; conditions: 3 mg/ml, 37° C. shaking
In short: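 Compounds at 3 mg/ml final in buffer were stressed at 37° C by repeated cycles of 10 s shaking at 960 rpm and 50 s rest. ThT fluorescence was read every 20 minutes in eight replicates, with fluorescence increase and lag time indicating fibrillation tendency.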

[3] = Pharmacokinetic properties in mice, i.v. or s.c. (Example 16); type: in vivo, C57BI/6 mice; conditions: female, C57BL/6, plasma, Mouse
Procedure: as §1, §2

recombinant human CRF2 = target: T1, recombinant human CRF2 (Homo sapiens, UniProt Q13324); assay: CRF2a (h) agonist radioligand binding, [125]sauvagine, HEK cell membranes (Example 11); conditions: competition with [125]sauvagine 0.1 nM
T1 construct: expressed in transfected cells; host or cells: HEK
T1 sequence (Q13324 1-411): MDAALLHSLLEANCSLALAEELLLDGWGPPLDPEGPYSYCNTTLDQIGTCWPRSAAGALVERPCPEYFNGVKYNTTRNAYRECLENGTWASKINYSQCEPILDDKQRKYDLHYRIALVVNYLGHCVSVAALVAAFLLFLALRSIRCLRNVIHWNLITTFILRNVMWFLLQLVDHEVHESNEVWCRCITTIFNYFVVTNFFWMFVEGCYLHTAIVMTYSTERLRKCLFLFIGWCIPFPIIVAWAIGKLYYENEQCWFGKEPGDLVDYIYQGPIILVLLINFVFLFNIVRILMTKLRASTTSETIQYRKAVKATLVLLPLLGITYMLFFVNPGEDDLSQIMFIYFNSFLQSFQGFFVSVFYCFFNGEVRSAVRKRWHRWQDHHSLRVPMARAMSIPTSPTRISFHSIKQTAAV
Procedure: Receptor binding of the compounds was assessed using a CRF2a (h) (agonist radioligand) assay.
HEK cells expressing recombinant human CRF2 were used as a source of receptor for membrane preparation.
IC50 values (concentration causing a half-maximal inhibition of control specific binding) and Hill coefficients (nH) were determined by non-linear regression analysis of the competition curves generated with mean replicate values using Hill equation curve fitting. The inhibition constants (Ki) were calculated using the Cheng Prusoff equation [Ki=IC50/(1+L/KD) where L is the concentration of radioligand in the assay, and KD is the affinity of the radioligand for the receptor). A Scatchard plot was used to determine the KD.

[4] = Physical stability, dynamic light scattering assay (Example 15); type: physicochemical; conditions: for Apparent Rh [nm] 4 weeks / Scattering Intensity (I) [%] 4 weeks: 4 weeks at 40° C.
In short: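 DLS at 837 nm, 150° angle, +25° C; Rh, scattering intensity and mass contribution measured at 0 weeks and after 4 weeks at 40° C. Rh and D compared at 1, 5 and 10 mg/ml as kD surrogate; separate measurements at 300 μM, purity-corrected.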

[5] = male, Sprague-Dawley (SD), plasma, iv, 0.1 mg/kg i.v.
[6] = male, Sprague-Dawley (SD), plasma, sc, 0.1 mg/kg s.c.
[7] = Buffer A: 100 mM acetate buffer, pH 4.5
[8] = Buffer B: 100 mM acetate buffer, pH 4.5, 2.7 mg/ml m-cresol
[9] = Buffer C (20 mM phosphate, pH 6.2)
[10] = Buffer A (100 mM acetate, pH 4.5)
[11] = Buffer D (20 mM phosphate, pH 7.4)

- AUClast ([1]; 0.1 mg/kg i.v.): 2790 ng·h/mL
- clearance ([1]; male, SD, plasma, iv, 0.1 mg/kg i.v., read-out: CI (converted)): 0.597 mL/min/kg
- bioavailability ([1]; male, SD, plasma, sc, 0.1 mg/kg s.c.): 45.8%
- Cmax [1, 5]: 1900 ng/mL
- half-life [1, 5]: 3 h
- AUC(0-t) [1, 6]: 1200 ng·h/mL
- Cmax [1, 6]: 131 ng/mL
- half-life [1, 6]: 6.1 h
- Increase in FI (fluorescence intensity) [2, 7]: No
- Lag time [2, 7]: >45 h
- Increase in FI (fluorescence intensity) [2, 8]: No
- Lag time [2, 8]: >45 h
- AUC(0-t) ([3]; iv, 0.3 mg/kg i.v.): 23700 ng·h/mL
- Cmax ([3]; iv, 0.3 mg/kg i.v.): 4150 ng/mL
- half-life ([3]; iv, 0.3 mg/kg i.v.): 6.4 h
- clearance ([3]; iv, 0.3 mg/kg i.v., read-out: CI (converted)): 0.21 mL/min/kg
- AUC(0-t) ([3]; sc, 0.1 mg/kg s.c.): 18500 ng·h/mL
- Cmax ([3]; sc, 0.1 mg/kg s.c.): 1410 ng/mL
- half-life ([3]; sc, 0.1 mg/kg s.c.): 5.5 h
- nH (Hill coefficient) (recombinant human CRF2): 1.7
SMILES: CC[C@H](C)[C@H](N)C(=O)N[C@H](C(=O)N[C@@H](CC(C)C)C(=O)N[C@@H](CO)C(=O)N[C@@H](CC(C)C)C(=O)N[C@@H](CC(=O)O)C(=O)N[C@H](C(=O)N1CCC[C@H]1C(=O)N[C@H](C(=O)N[C@@H](CCCCN)C(=O)N[C@@H](CC(C)C)C(=O)N[C@@H](CCCCNC(=O)COCCOCCNC(=O)COCCOCCNC(=O)CC[C@H](NC(=O)CCCCCCCCCCCCCCCCC(=O)O)C(=O)O)C(=O)N[C@@H](CCCCN)C(=O)N[C@H](C(=O)N[C@@H](CC(C)C)C(=O)N[C@@H](CC(C)C)C(=O)N[C@@H](CCC(=O)O)C(=O)N[C@@H](CCC(N)=O)C(=O)N[C@@H](CCC(=O)O)C(=O)N[C@@H](CCCCN)C(=O)N[C@@H](CCC(N)=O)C(=O)N[C@@H](CCCCN)C(=O)N[C@@H](CCCCN)C(=O)N[C@@H](CCC(N)=O)C(=O)N[C@@H](CCCNC(=N)N)C(=O)N[C@@H](CCC(=O)O)C(=O)N[C@@H](CCC(N)=O)C(=O)N[C@@H](C)C(=O)N[C@@H](CCC(=O)O)C(=O)N[C@H](C(=O)N[C@@H](CC(N)=O)C(=O)N[C@@H](CCCCN)C(=O)N[C@@H](CCC(N)=O)C(=O)N[C@H](C(=O)N[C@@H](CC(C)C)C(=O)N[C@@H](C)C(=O)N[C@@H](CCC(N)=O)C(=O)N[C@H](C(N)=O)C(C)C)[C@@H](C)CC)[C@@H](C)O)[C@@H](C)CC)[C@@H](C)CC)C(C)C)C(C)C [compound 35] (H-IVLSLDVPIKLK([AEEA-AEEA-γGlu-C18 diacid])KILLEQEKQKKQREQAETNKQILAQV-NH2; N-terminus assumed)

SMILES: CC[C@H](C)[C@H](NC(=O)[C@H](CCC(N)=O)NC(=O)[C@H](CCC(=O)O)NC(=O)[C@H](CC(C)C)NC(=O)[C@H](CC(C)C)NC(=O)[C@H](CCC(N)=O)NC(=O)[C@H](CCCCN)NC(=O)[C@H](CC(N)=O)NC(=O)[C@H](CCCCN)NC(=O)[C@H](CCC(=O)O)NC(=O)[C@H](C)NC(=O)[C@H](CCC(N)=O)NC(=O)[C@H](CCC(N)=O)NC(=O)[C@H](CCCNC(=N)N)NC(=O)[C@H](CCC(=O)O)NC(=O)[C@H](CCCCN)NC(=O)[C@H](CCCCN)NC(=O)[C@H](CCC(N)=O)NC(=O)[C@H](CCCCN)NC(=O)[C@H](CCC(N)=O)NC(=O)[C@H](CCC(N)=O)NC(=O)[C@H](CCCCN)NC(=O)[C@H](CC(C)C)NC(=O)[C@H](CC(C)C)NC(=O)[C@@H](NC(=O)[C@H](CCC(N)=O)NC(=O)[C@H](CCCCNC(=O)COCCOCCNC(=O)COCCOCCNC(=O)CC[C@H](NC(=O)CCCCCCCCCCCCCCCCCCC(=O)O)C(=O)O)NC(=O)[C@@H](NC(=O)[C@H](CCCCN)NC(=O)[C@@H](NC(=O)[C@@H]1CCCN1C(=O)[C@@H](NC(=O)[C@H](CC(=O)O)NC(=O)[C@H](CC(C)C)NC(=O)[C@H](CO)NC(=O)[C@H](CC(C)C)NC(=O)[C@@H](NC(=O)[C@@H](N)Cc1ccccc1)[C@@H](C)O)C(C)C)[C@@H](C)O)[C@@H](C)CC)[C@@H](C)CC)C(N)=O [compound 59] (H-FTLSLDVPTKIK([AEEA-AEEA-γGlu-C20 diacid])QILLKQQKQKKERQQAEKNKQLLEQI-NH2)
- Apparent Rh [nm] 0 weeks [4, 9]: 3.66 ± 0.05 nm
- Scattering Intensity (I) [%] 0 weeks [4, 9]: 100 ± 0%
- Apparent Rh [nm] 4 weeks [4, 9]: 3.75 ± 0.08 nm
- Scattering Intensity (I) [%] 4 weeks [4, 9]: 100 ± 0%
- nH (Hill coefficient) (recombinant human CRF2): 0.6

- Increase in FI (fluorescence intensity) [2, 8]: No
- Lag time [2, 8]: >45 h
- Apparent Rh [nm] 0 weeks [4, 10]: 2.83 ± 0.12 nm
- Scattering Intensity (I) [%] 0 weeks [4, 10]: 99 ± 1%
- Apparent Rh [nm] 4 weeks [4, 10]: 3.01 ± 0.03 nm
- Scattering Intensity (I) [%] 4 weeks [4, 10]: 99 ± 1%
- Apparent Rh [nm] 0 weeks [4, 11]: 2.54 ± 0.16 nm
- Scattering Intensity (I) [%] 0 weeks [4, 11]: 100 ± 0%
- Apparent Rh [nm] 4 weeks [4, 11]: 2.63 ± 0.15 nm
- Scattering Intensity (I) [%] 4 weeks [4, 11]: 100 ± 0%
SMILES: CC[C@H](C)[C@H](N)C(=O)N[C@H](C(=O)N[C@@H](CC(C)C)C(=O)N[C@@H](CO)C(=O)N[C@@H](CC(C)C)C(=O)N[C@@H](CC(=O)O)C(=O)N[C@@H](C(=O)N1CCC[C@H]1C(=O)N[C@H](C(=O)N[C@@H](CCCCN)C(=O)N[C@@H](CC(C)C)C(=O)N[C@@H](CCCCNC(=O)COCCOCCNC(=O)COCCOCCNC(=O)CC[C@H](NC(=O)CCCCCCCCCCCCCCCCC(=O)O)C(=O)O)C(=O)N[C@@H](CCC(N)=O)C(=O)N[C@H](C(=O)N[C@@H](CC(C)C)C(=O)N[C@@H](CC(C)C)C(=O)N[C@@H](CCCCN)C(=O)N[C@@H](CCC(N)=O)C(=O)N[C@@H](CCC(=O)O)C(=O)N[C@@H](CCCNC(=N)N)C(=O)N[C@@H](CCC(N)=O)C(=O)N[C@@H](CCCCN)C(=O)NC(C)(C)C(=O)N[C@@H](CCC(N)=O)C(=O)N[C@@H](CCCNC(=N)N)C(=O)N[C@@H](CCC(N)=O)C(=O)N[C@@H](CCC(N)=O)C(=O)N[C@@H](C)C(=O)N[C@@H](CCC(=O)O)C(=O)N[C@@H](CCCCN)C(=O)N[C@@H](CC(N)=O)C(=O)N[C@@H](CCCCN)C(=O)N[C@@H](CCC(N)=O)C(=O)N[C@H](C(=O)N[C@@H](CC(C)C)C(=O)N[C@@H](C)C(=O)N[C@@H](CCC(N)=O)C(=O)N[C@H](C(N)=O)C(C)C)[C@@H](C)CC)[C@@H](C)CC)[C@@H](C)CC)C(C)C)C(C)C [compound 135] (H-IVLSLD[dV]PIKLK([AEEA-AEEA-γGlu-C18 diacid])QILLKQERQK[Aib]QRQQAEKNKQILAQV-NH2; N-terminus assumed)
